Source: patent US11564969B2, “Immunorhelin compounds for intracellular infections” (ISR IMMUNE SYSTEM REGULATION HOLDING AB (PUBL), priority 2017, dated 2023)
Where a name gives a salt, the structure may show the parent alone. Square brackets hold non-standard residues; d marks the D form. Peptide text beside a SMILES is read from it. pGlu = O=C1CC[C@@H](C(=O)O)N1

Assay: Solubility analysis in PBS (Analysis Method B)
Format: physicochemical
Conditions: pH 7.4
Procedure: The solubility of compounds of the invention was tested as described in the general methods. Solubility was then graded according to a rating between 1 to 5, where 1 is most soluble and 5 is least soluble.

Solubility grading | Compound
4 | CC(C)C[C@H](NC(=O)[C@@H](Cc1c[nH]c2ccccc12)NC(=O)[C@H](Cc1ccc(O)cc1)NC(=O)[C@H](CO)NC(=O)[C@H](Cc1c[nH]c2ccccc12)NC(=O)[C@H](Cc1c[nH]cn1)NC(=O)[C@@H]1CCC(=O)N1)C(=O)N[C@@H](Cc1ccc(O)cc1)C(=O)N1CCC[C@H]1C(=O)NCC(N)=O [Compound 14, pGlu-His-Trp-Ser-Tyr-D-Trp-Leu-Tyr-Pro-Gly-amide] ([pGlu]HWSY[dW]LYPG-NH2)
2 | CC(C)C[C@H](NC(=O)[C@@H](Cc1c[nH]c2ccccc12)NC(=O)[C@H](Cc1c[nH]cn1)NC(=O)[C@H](CO)NC(=O)[C@H](Cc1c[nH]c2ccccc12)NC(=O)[C@H](Cc1c[nH]cn1)NC(=O)[C@@H]1CCC(=O)N1)C(=O)N[C@@H](Cc1ccc(O)cc1)C(=O)N1CCC[C@H]1C(=O)NCC(N)=O [Compound 16, pGlu-His-Trp-Ser-His-D-Trp-Leu-Tyr-Pro-Gly-amide] ([pGlu]HWSH[dW]LYPG-NH2)
2 | CCNC(=O)[C@@H]1CCCN1C(=O)[C@H](CCCNC(=N)N)NC(=O)[C@H](CC(C)C)NC(=O)[C@@H](Cc1cn(Cc2ccccc2)cn1)NC(=O)[C@H](Cc1ccc(O)cc1)NC(=O)[C@H](CO)NC(=O)[C@H](Cc1c[nH]c2ccccc12)NC(=O)[C@H](Cc1cnc[nH]1)NC(=O)[C@@H]1CCC(=O)N1 [Histrelin TFA, histrelin, reference compound]
3 | N=C(N)NCCC[C@H](NC(=O)[C@H](Cc1c[nH]c2ccccc12)NC(=O)[C@@H](Cc1c[nH]c2ccccc12)NC(=O)[C@H](Cc1c[nH]cn1)NC(=O)[C@H](CO)NC(=O)[C@H](Cc1c[nH]c2ccccc12)NC(=O)[C@H](Cc1c[nH]cn1)NC(=O)[C@@H]1CCC(=O)N1)C(=O)N1CCC[C@H]1C(=O)NCC(N)=O [Compound 20, pGlu-His-Trp-Ser-His-D-Trp-Trp-Arg-Pro-NHEt]
1 | CCNC(=O)[C@@H]1CCCN1C(=O)[C@H](CCCNC(=N)N)NC(=O)[C@H](CC(C)C)NC(=O)[C@@H](CC(C)C)NC(=O)[C@H](Cc1ccc(O)cc1)NC(=O)[C@H](CO)NC(=O)[C@H](Cc1c[nH]c2ccccc12)NC(=O)[C@H](Cc1c[nH]cn1)NC(=O)[C@@H]1CCC(=O)N1 [Leuprorelin TFA, leuprorelin, reference compound]
4 | CCNC(=O)[C@@H]1CCCN1C(=O)[C@H](CCCNC(=N)N)NC(=O)[C@H](CC(C)C)NC(=O)[C@@H](Cc1cn(Cc2ccccc2)cn1)NC(=O)[C@H](Cc1ccc(O)cc1)NC(=O)[C@H](CO)NC(=O)[C@H](Cc1c[nH]c2ccccc12)NC(=O)[C@H](Cc1cnc[nH]1)NC(=O)[C@@H]1CCC(=O)N1 [Histrelin acetate, histrelin, reference compound]
2 | CCNC(=O)[C@@H]1CCCN1C(=O)[C@H](CCCNC(=N)N)NC(=O)[C@H](CC(C)C)NC(=O)[C@@H](CC(C)C)NC(=O)[C@H](Cc1ccc(O)cc1)NC(=O)[C@H](CO)NC(=O)[C@H](Cc1c[nH]c2ccccc12)NC(=O)[C@H](Cc1c[nH]cn1)NC(=O)[C@@H]1CCC(=O)N1 [Leuprorelin acetate, leuprorelin, reference compound]

Compound | Solubility grading
CC(C)C[C@H](NC(=O)[C@@H](Cc1ccc2ccccc2c1)NC(=O)[C@H](Cc1ccc(O)cc1)NC(=O)[C@H](CO)NC(=O)[C@H](Cc1c[nH]c2ccccc12)NC(=O)[C@H](Cc1c[nH]cn1)NC(=O)[C@@H]1CCC(=O)N1)C(=O)N[C@@H](CCCNC(=N)N)C(=O)N1CCC[C@H]1C(=O)NCC(N)=O [Naferelin acetate, nafarelin, reference compound] | 2
CC(C)C[C@H](NC(=O)[C@@H](Cc1ccc2ccccc2c1)NC(=O)[C@H](Cc1ccc(O)cc1)NC(=O)[C@H](CO)NC(=O)[C@H](Cc1c[nH]c2ccccc12)NC(=O)[C@H](Cc1c[nH]cn1)NC(=O)[C@@H]1CCC(=O)N1)C(=O)N[C@@H](CCCNC(=N)N)C(=O)N1CCC[C@H]1C(=O)NCC(N)=O [Naferelin TFA, nafarelin, reference compound] | 1
